US5095014A, “3-(2-chloro-4-(trifluoromethyl)phenoxy)-1-azetidine carboxamides having anticonvulsant activity” (A. H. Robins Company, Incorporated, priority 1990, dated 1992)

How the values were obtained:
[1] = tested on: tonic seizures (electrically induced convulsions); experiment: Maximal Electroshock (percent protection from tonic seizures); type: in vivo; details: mice; for ED50: Mus musculus, ip, 0.5 h, intraperitoneal, 30 minutes prior to electrical challenge
Procedure: (§1) The pharmacological tests used are (1) maximal electroshock and (2) pentylenetetrazole (Metrazole®) chemical challenge where the percent protection afforded by the test compounds against convulsions induced by electrical stimulus or by the drug Metrazole is determined. These test procedures are described further hereinbelow.
(§2) The pharmacological test data are expressed either as an ED50 (mg/kg) or percent protection/dose (mg/kg) for test compounds administered intraperitoneally (IP) in mice.
Adult female mice in groups of eight were administered the test drug intraperitoneally (usually 100 mg/kg initially for screening) in liquid carrier (10 mg/ml), usually physiological saline or water, 30 minutes prior to electrical challenge. Animals were challenged electrically by placing brass electrodes on the corneas and applying an electrical stimulus (60 Hz, 5 m sec. pulse width, 34 mA intensity) for 0.2 seconds by way of a Grass Stimulator® and constant current unit and a Hunter Timer®. The absence of tonic seizures upon cessation of the stimuli was scored as protection in that animal. The number of animals protected from tonic seizures at a given dose of test drug was determined. […] EXP. THER. 96, 99-113.

[2] = tested on: pentylenetetrazol-induced convulsions; experiment: Metrazole Chemical Challenge (Swinyard Method); type: in vivo; details: mice; for ED50: Mus musculus, ip, 0.5 h, intraperitoneal, 1/2 hour before Metrazole 80 mg/kg S.C.
Procedure: as §1, §2
Groups of 8 adult female mice were randomly assigned to dosage groups according to the method of Steel, R. G. D., and Torrie, J. H. (1960) in "Principles and Procedures of Statistics", McGraw-Hill Book Company, Inc., pp 99-100, pp 428-31. Each mouse was identified with a color code on its tail. The test compounds were administered as solutions or suspensions in 10 ml/kg mouse body weight of 0.5% aqueous methyl cellulose within 15 minutes of preparation of the suspension. Metrazole® (pentylenetetrazol) was prepared as a solution in physiological saline. The mice were not fasted prior to the test. Eight mice were tested at each dosage level.
Each mouse received one dose of the test drug (usually 100 mg/kg for screening) in the 0.5% aqueous methylcellulose or the control article (0.5% aqueous methylcellulose alone) intraperitoneally. Metrazole (80 mg/kg S.C.) was then given in a loose fold of skin on the back of the neck, 1/2 hour after the test compound or control article was given. All injections were given in a volume of 10 ml/kg mouse body weight. […] Anticonvulsant data were tabulated as the percent protection, i.e., [formula] […] Hefner Publishing Co.

Compound	ED50 [1]	ED50 [2]	other results
NC(=O)N1CC(Oc2ccc(C(F)(F)F)cc2Cl)C1 [Example 1, 3-[2-Chloro-4-(trifluoromethyl)phenoxy]-1-azetidinecarboxamide]	8.5 mg/kg	11.5 mg/kg	
CNC(=O)N1CC(Oc2ccc(C(F)(F)F)cc2Cl)C1 [Example 2, 3-[2-Chloro-4-(trifluoromethyl)phenoxy]-N-methyl-1-azetidinecarboxamide]	6.4 mg/kg	11.3 mg/kg	
C=CCNC(=O)N1CC(Oc2ccc(C(F)(F)F)cc2Cl)C1 [Example 3, 3-[2-Chloro-4-(trifluoromethyl)phenoxy]-N-(2-propenyl)-1-azetidinecarboxamide]	9.5 mg/kg		Metrazole % protected ([2]; dose 10 mg/kg IP): 12.5%; Metrazole % protected ([2]; dose 36 mg/kg IP): 0%
CN(C)C(=O)N1CC(Oc2ccc(C(F)(F)F)cc2Cl)C1 [Example 4, 3-[2-Chloro-4-(trifluoromethyl)phenoxy]-N,N-dimethyl-1-azetidinecarboxamide]	8.2 mg/kg		Metrazole % protected ([2]; dose 31.6 mg/kg IP): 37.5%; Metrazole % protected ([2]; dose 52 mg/kg IP): 0%; Metrazole % protected ([2]; dose 100 mg/kg IP): 0%
CNC(=O)N1CC(Oc2ccccc2C(F)(F)F)C1 [Example 5, 3-[2-(Trifluoromethyl)phenoxy]-N-methyl-1-azetidinecarboxamide]	125 mg/kg		Metrazole % protected ([2]; dose 120 mg/kg IP): 0%
CNC(=O)N1CC(Oc2cccc(C(F)(F)F)c2)C1 [Example 6, N-Methyl-3-[3-(trifluoromethyl)phenoxy]-1-azetidinecarboxamide]	29 mg/kg		
CNC(=O)N1CC(Oc2ccc(C(F)(F)F)cc2)C1 [Example 7, 3-(4-Trifluoromethylphenoxy)-N-methyl-1-azetidinecarboxamide]	25.7 mg/kg	33 mg/kg	
CNC(=O)N1CC(Oc2ccccc2Cl)C1 [Example 8, 3-(2-Chlorophenoxy)-N-methyl-1-azetidinecarboxamide]			Electroshock % protected ([1]; dose 56.2 mg/kg IP): 0%; Metrazole % protected ([2]; dose 100 mg/kg IP): 0%
CNC(=O)N1CC(Oc2cccc(Cl)c2)C1 [Example 9, 3-(3-Chlorophenoxy)-N-methyl-1-azetidinecarboxamide]	45.5 mg/kg		Metrazole % protected ([2]; dose 100 mg/kg IP): 37.5%
CNC(=O)N1CC(Oc2ccc(Cl)cc2)C1 [Example 10, 3-(4-Chlorophenoxy)-N-methyl-1-azetidinecarboxamide]	23.8 mg/kg	50 mg/kg	
NC(=O)N1CC(Oc2ccc(Cl)cc2Cl)C1 [Example 11, 3-(2,4-Dichlorophenoxy)-1-azetidinecarboxamide]		31.6 mg/kg	Electroshock % protected ([1]; dose 17.8 mg/kg IP): 0%; Electroshock % protected ([1]; dose 31.6 mg/kg IP): 100%
CN(C)C(=O)N1CC(Oc2ccc(Cl)cc2Cl)C1 [Example 12, 3-(2,4-Dichlorophenoxy)-N,N,-dimethyl-1-azetidinecarboxamide]			Electroshock % protected ([1]; dose 17.8 mg/kg IP): 0%; Electroshock % protected ([1]; dose 31.6 mg/kg IP): 100%
CNC(=O)N1CC(Oc2ccc(Cl)cc2Cl)C1 [Example 13, 3-(2,4-Dichlorophenoxy)-N-methyl-1-azetidinecarboxamide]	18.5 mg/kg	40.9 mg/kg	
Cc1cccc(Cl)c1OC1CN(C(N)=O)C1 [Example 14, 3-(2-Chloro-6-methylphenoxy)-1-azetidinecarboxamide]	81.5 mg/kg		
Cc1cccc(Cl)c1OC1CN(C(=O)N(C)C)C1 [Example 15, 3-(2-Chloro-6-methylphenoxy)-N,N-dimethyl-1-azetidinecarboxamide]			Electroshock % protected ([1]; dose 31.6 mg/kg IP): 37.5-62.5%
CNC(=O)N1CC(Oc2c(C)cccc2Cl)C1 [Example 16, 3-(2-Chloro-6-methyphenoxy)-N-methyl-1-azetidinecarboxamide]	53 mg/kg		
CNC(=O)N1CC(Oc2ccc(F)cc2Cl)C1 [Example 17, 3-(2-Chloro-4-fluorophenoxy)-N-methyl-1-azetidinecarboxamide]	44.5 mg/kg	32.8 mg/kg	
CNC(=O)N1CC(Oc2cc(C(F)(F)F)ccc2Cl)C1 [Example 18, 3-[2-Chloro-5-(trifluoromethyl)phenoxy]-N-methyl-1-azetidinecarboxamide]			Electroshock % protected ([1]; dose 56.2 mg/kg IP): 37.5%; Electroshock % protected ([1]; dose 100 mg/kg IP): 50%
CNC(=O)N1CC(Oc2cc(C(F)(F)F)ccc2F)C1 [Example 19, 3-[2-Fluoro-5-(trifluoromethyl)phenoxy]-N-methyl-1-azetidine-carboxamide]			Electroshock % protected ([1]; dose 31.6 mg/kg IP): 50%; Electroshock % protected ([1]; dose 56.2 mg/kg IP): 50%
CNC(=O)N1CC(Oc2ccc(Cl)c(Cl)c2)C1 [Example 20, 3-(3,4-Dichlorophenoxy)-N-methyl-1-azetidinecarboxamide]	39.5 mg/kg	49.5 mg/kg	
